In ChEMBL document CHEMBL5036306 (J Med Chem, 2021):
Activity calls are given as the source filed them. The rule behind the calls is not given here.

Tests used:
[1] = molecular target: T1, Histone deacetylase 3 (Homo sapiens, UniProt O15379); experiment: Inhibition of recombinant HDAC3 (unknown origin) at 1 uM using Boc-Lys(Ac)-AMC as substrate preincubated for 1 hr followed by substrate addition and measured after 2 hrs by fluorescence based assay relative to control; details: time 3.0 hrs
[2] = Antioxidant activity assessed as DPPH radical scavenging activity incubated for 30 mins under dark condition by microplate reader based assay; assay type: functional
[3] = Antioxidant activity of compound assessed as trolox equivalent of AAPH radical scavenging activity at 2 to 4 uM preincubated for 15 mins followed by AAPH addition and measured every 2 mins for 90 mins by ORAC-fluorescein assay; assay type: functional; details: dose 2-4 µM, time 105.0 min
[4] = molecular target: T2, Protein deacetylase HDAC6 (Homo sapiens) (UniProt Q9UBN7); experiment: Inhibition of recombinant HDAC6 (unknown origin) at 1 uM using Boc-Lys(Ac)-AMC as substrate preincubated for 1 hr followed by substrate addition and measured after 2 hrs by fluorescence based assay; details: time 3.0 hrs
T2 sequence (whole entry): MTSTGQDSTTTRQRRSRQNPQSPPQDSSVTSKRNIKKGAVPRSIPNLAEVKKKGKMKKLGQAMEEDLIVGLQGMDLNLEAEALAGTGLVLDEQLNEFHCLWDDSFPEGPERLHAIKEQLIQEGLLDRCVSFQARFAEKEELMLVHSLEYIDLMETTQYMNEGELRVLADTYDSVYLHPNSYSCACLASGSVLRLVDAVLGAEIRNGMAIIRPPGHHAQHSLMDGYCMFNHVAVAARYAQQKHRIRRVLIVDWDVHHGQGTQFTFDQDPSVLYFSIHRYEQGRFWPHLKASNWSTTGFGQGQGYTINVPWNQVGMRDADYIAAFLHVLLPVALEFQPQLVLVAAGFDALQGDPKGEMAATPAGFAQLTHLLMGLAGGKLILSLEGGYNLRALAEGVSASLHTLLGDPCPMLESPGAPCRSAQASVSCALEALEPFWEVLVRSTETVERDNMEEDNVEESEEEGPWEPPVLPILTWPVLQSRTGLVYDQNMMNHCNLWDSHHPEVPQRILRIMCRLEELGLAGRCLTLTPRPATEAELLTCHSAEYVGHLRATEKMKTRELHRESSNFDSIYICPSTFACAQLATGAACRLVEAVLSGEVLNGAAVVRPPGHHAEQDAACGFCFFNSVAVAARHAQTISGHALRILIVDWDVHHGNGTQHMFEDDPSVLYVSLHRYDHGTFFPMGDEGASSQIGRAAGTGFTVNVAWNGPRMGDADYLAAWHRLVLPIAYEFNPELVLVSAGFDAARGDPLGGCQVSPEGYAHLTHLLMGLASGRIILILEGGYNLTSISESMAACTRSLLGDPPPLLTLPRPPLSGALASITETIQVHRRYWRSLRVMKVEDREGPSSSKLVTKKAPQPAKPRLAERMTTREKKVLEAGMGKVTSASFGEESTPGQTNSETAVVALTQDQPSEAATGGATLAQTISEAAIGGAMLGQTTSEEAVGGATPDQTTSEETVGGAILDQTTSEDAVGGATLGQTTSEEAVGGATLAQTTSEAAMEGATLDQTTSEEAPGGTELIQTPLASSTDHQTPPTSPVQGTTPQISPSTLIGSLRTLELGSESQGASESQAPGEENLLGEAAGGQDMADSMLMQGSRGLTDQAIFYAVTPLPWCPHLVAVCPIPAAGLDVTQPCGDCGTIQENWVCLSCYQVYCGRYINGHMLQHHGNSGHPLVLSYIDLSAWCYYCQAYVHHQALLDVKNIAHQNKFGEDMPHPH

[5] = molecular target: T1, Histone deacetylase 3; experiment: Inhibition of recombinant HDAC3 (unknown origin) using Boc-Lys(acetyl)-AMC as substrate preincubated for 1 hr followed by substrate addition and measured after 2 hrs by fluorescence based assay
[6] = organism: Homo sapiens; experiment: Selectivity ratio of IC50 for recombinant HDAC3 (unknown origin) to IC50 for recombinant HDAC6 (unknown origin)
[7] = molecular target: T3, Protein deacetylase HDAC6 (Homo sapiens, UniProt Q9UBN7); experiment: Inhibition of recombinant HDAC6 (unknown origin) using Boc-Lys(acetyl)-AMC as substrate preincubated for 1 hr followed by substrate addition and measured after 2 hrs by fluorescence based assay
T3 sequence (Q9UBN7 whole entry): T2 sequence (whole entry)

[8] = system: HT-22; experiment: Neuroprotection against glutamate-induced oxytosis in mouse HT-22 cells assessed as cell viability at 50 uM; assay type: functional, cell-based
[9] = system: HT-22; experiment: Neuroprotection against iodoacetic acid-induced ATP depletion in mouse HT-22 cells assessed as cell viability at 50 uM; assay type: functional, cell-based
[10] = Neurotoxicity in mouse HT-22 cells assessed as cell survival at 10 uM incubated for 48 hrs by MTT assay; assay type: cell-based; details: for viability at 48 h, 10 µM: HT-22 cells, read-out: Activity
[11] = system: Mus musculus; experiment: Anti-alzheimer activity against amyloid beta (25 to 35) induced working memory deficit in mouse assessed as increase in spontaneous alternation performance at 1 mg/kg, ip administered for 7 days and measured on day 8 by Y-maze test; assay type: functional, organism-based; details: time 7.0 day
[12] = Metal chelating activity compound-Zn2+ complex formation at 10 to 200 uM preincubated for 2 mins followed by di-thizone addition by microplate reader based assay; details: dose 10-200 µM
[13] = Metal chelating activity assessed as compound-Cu2+ complex formation at 10 to 200 uM incubated for 2 mins followed by pyrocatechol violet addition and further incubated for 10 mins by microplate reader based assay; details: dose 10-200 µM, time 12.0 min
[14] = system: Mus musculus; experiment: Anti-alzheimer activity against amyloid beta (25 to 35) induced working memory deficit mouse assessed as increase in spontaneous alternation performance by measuring total number of arm entries at 0.3 mg/kg, ip administered for 7 days and measured on day 8 in presence of melatonin and ferulic acid by Y-maze test; assay type: functional, organism-based; details: time 8.0 day
[15] = Toxicity in mouse model of Alzheimer's disease assessed as drug tolerability at 0.3 to 3 mg/kg, ip measured after 7 days; assay type: organism-based; details: in vivo, 168 h, dose 0.3-3 mg/kg, time 7 day
[16] = system: Mus musculus; experiment: Neuroprotection against mouse model of Alzheimer's disease at 1 mg/kg; assay type: functional, organism-based
[17] = system: Mus musculus; experiment: Anti-alzheimer activity against amyloid beta (25 to 35) induced working memory deficit mouse assessed as step-through latency time to enter dark compartment at 1 mg/kg, ip administered for 7 days and measured on day 9 days in presence of melatonin and ferulic acid by passive avoidance test; assay type: functional, organism-based; details: time 7.0 day
[18] = system: Mus musculus; experiment: Anti-alzheimer activity against amyloid beta (25 to 35) induced working memory deficit mouse assessed as step-through latency time to enter dark compartment at 0.3 to 3 mg/kg, ip administered for 7 days and measured on day 9 days by passive avoidance test; assay type: functional, organism-based; details: dose 0.3-3 mg/kg, time 9.0 day
[19] = Metal chelating activity assessed as Fe2+ -ferrozoine complex formation at 10 to 200 uM preincubated for 2 mins followed by ferrozine addition and further incubated for 10 mins by microplate reader based assay; details: dose 10-200 µM, time 12.0 min
[20] = system: Mus musculus; experiment: Cognitive enhancing effect in mouse model of Alzheimer's disease at 1 mg/kg; assay type: functional, organism-based
[21] = system: Mus musculus; experiment: Anti-alzheimer activity against amyloid beta (25 to 35) induced working memory deficit mouse assessed as increase in spontaneous alternation performance by measuring total number of arm entries at 0.16 mg/kg, ip administered for 7 days and measured on day 8 by Y-maze test; assay type: functional, organism-based; details: time 8.0 day
[22] = system: Mus musculus; experiment: Anti-alzheimer activity against amyloid beta (25 to 35) induced working memory deficit mouse assessed as step-through latency time to enter dark compartment at 1 mg/kg, ip administered for 7 days and measured on day 9 days by passive avoidance test; assay type: functional, organism-based; details: time 9.0 day

T1 sequence (O15379 whole entry): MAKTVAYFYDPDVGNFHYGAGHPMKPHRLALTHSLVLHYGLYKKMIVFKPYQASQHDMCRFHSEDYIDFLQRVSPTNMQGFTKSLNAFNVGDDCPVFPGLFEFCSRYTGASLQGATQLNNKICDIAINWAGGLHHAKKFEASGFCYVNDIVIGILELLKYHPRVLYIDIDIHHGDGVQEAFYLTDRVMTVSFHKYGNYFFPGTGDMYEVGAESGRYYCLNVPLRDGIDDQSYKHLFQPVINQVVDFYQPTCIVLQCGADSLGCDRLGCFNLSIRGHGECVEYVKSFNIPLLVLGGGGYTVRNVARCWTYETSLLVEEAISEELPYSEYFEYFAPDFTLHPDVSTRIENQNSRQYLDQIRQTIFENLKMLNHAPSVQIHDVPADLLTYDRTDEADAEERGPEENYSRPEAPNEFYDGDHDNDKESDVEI

SMILES | EC50 [2] | IC50 [5] | Ratio IC50 [6] | IC50 [7] | ORAC antioxidant capacity (Trolox equivalents) [3] | also measured
COc1ccc2[nH]cc(CCNCc3ccc(C(=O)NO)cc3)c2c1 | 66.7 µM |  |  |  | 3 | inhibition [1]: 26%; inhibition [4]: 43%
COc1ccc2c(c1)c(CCNC(C)=O)cn2CCCCCC(=O)NO | 262 µM | 0.494 µM | 9 | 0.0523 µM | 1.6 | 
COc1ccc2[nH]cc(CCNC(=O)c3ccc(C(=O)NO)cc3)c2c1 | 62 µM |  |  |  | 2.4 | inhibition [1]: 87%; inhibition [4]: 88%
COc1ccc2c(c1)c(CCNC(C)=O)cn2Cc1ccc(/C=C/C(=O)NO)cc1 | 31.4 µM | 0.182 µM | 3 | 0.0688 µM | 1.4 | 
COc1ccc2[nH]cc(CCNC(=O)/C=C/c3ccc(C(=O)NO)cc3)c2c1 | 65 µM | 0.0197 µM | < 1 | 0.0337 µM | 2 | 
COc1ccc2[nH]cc(CCNC(=O)CCCCC(=O)NO)c2c1 | 292 µM |  |  |  | 3 | inhibition [1]: 25%
O=C(CCCCCCNC(=O)c1cnc(N(c2ccccc2)c2ccccc2)nc1)NO [RICOLINOSTAT] | 255 µM |  |  |  | 0.5 | Activity [11]: Active; Activity [12]: Active; Activity [13]: Active; Activity [14]: inactive; Activity ([10]; ht-22, 48 h, 10 µM): Toxic; Activity [15]: Non-Toxic; Activity [16]: Active; Activity [17]: inactive; Activity [18]: Active; Activity [19]: Active; Activity [20]: Active
COc1ccc2[nH]cc(CCNC(C)=O)c2c1 [MELATONIN] | > 6000 µM |  |  |  | 2 | Activity [21]: inactive; Activity [22]: inactive

These reach a lower EC50 [2]. Values come first.

EC50 [2] | IC50 [5] | Ratio IC50 [6] | IC50 [7] | SMILES | ORAC antioxidant capacity (Trolox equivalents) [3] | also measured
25.2 µM | 0.0036 µM | < 1 | 0.0191 µM | COc1ccc2[nH]cc(CCNC(=O)c3ccc(/C=C/C(=O)NO)cc3)c2c1 | 2 | viability at 48 h, 10 µM [10]: 60%
19.1 µM | 0.121 µM | 2 | 0.057 µM | COc1ccc2[nH]cc(CCNC(=O)CN(CCCCCC(=O)NO)C(=O)/C=C/c3ccc(O)c(OC)c3)c2c1 | 3.2 | 
17.1 µM | 0.0051 µM | < 1 | 0.0214 µM | COc1ccc2[nH]cc(CCNCc3ccc(/C=C/C(=O)NO)cc3)c2c1 | 2.4 | viability at 48 h, 10 µM [10]: 50%
15.2 µM |  |  |  | COc1ccc2[nH]cc(CCNC(=O)CN(Cc3ccc(C(=O)NO)cc3)C(=O)/C=C/c3ccc(O)c(OC)c3)c2c1 | 1.6 | inhibition [4]: 19%
13.7 µM |  |  |  | COc1cc(/C=C/C(=O)O)ccc1O [FERULATE] | 3.1 | 
8.9 µM | 0.811 µM | 2 | 0.353 µM | COc1ccc2[nH]cc(CCN(CCCCCC(=O)NO)C(=O)/C=C/c3ccc(O)c(OC)c3)c2c1 | 2.8 | 
8.5 µM | 0.163 µM | 6 | 0.0256 µM | COc1ccc2[nH]cc(CCN(Cc3ccc(/C=C/C(=O)NO)cc3)C(=O)/C=C/c3ccc(O)c(OC)c3)c2c1 | 1 | Activity [8]: Active; Activity [9]: Active
8.3 µM | 0.108 µM | 2 | 0.0532 µM | COc1ccc2[nH]cc(CCNC(=O)CN(Cc3ccc(/C=C/C(=O)NO)cc3)C(=O)/C=C/c3ccc(O)c(OC)c3)c2c1 | 1.2 | 
